Source: ChEMBL document CHEMBL1201862, “PubChem BioAssay data set” (2004)
Calls of active or inactive are those of the source.

Tests used:
Fatty acid synthase [1] = biological target: T1, Fatty acid synthase (Homo sapiens, UniProt P49327); test: inhibition of human FAS-TE enzyme activity – biochemical, endpoint fluorescence intensity, uHTS hits, dose response (AID 624327); assay type: functional;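 note: fluorescence from hydrolysis of an O-methyl fluorescein acyl ester substrate by the enzyme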
Fatty acid synthase [2] = biological target: T1, Fatty acid synthase; test: inhibition of human FAS-TE enzyme activity – biochemical, kinetic fluorescence intensity, dose response (AID 624326); assay type: functional;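 note: rate of fluorescence rise from hydrolysis of a fluorogenic O-methyl fluorescein ester substrate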
Kallikrein-7 = Kallikrein-7 (Homo sapiens, UniProt P49862); test: Fluorescence Intensity-based biochemical primary high throughput dose response assay to identify activators of kallikrein-7 (K7) zymogen.
fMet-Leu-Phe receptor = biological target: T2, fMet-Leu-Phe receptor (Homo sapiens, UniProt P21462); test: formyl peptide receptor binders – dose response (AID 519); assay type: functional
T2 sequence (P21462 whole entry): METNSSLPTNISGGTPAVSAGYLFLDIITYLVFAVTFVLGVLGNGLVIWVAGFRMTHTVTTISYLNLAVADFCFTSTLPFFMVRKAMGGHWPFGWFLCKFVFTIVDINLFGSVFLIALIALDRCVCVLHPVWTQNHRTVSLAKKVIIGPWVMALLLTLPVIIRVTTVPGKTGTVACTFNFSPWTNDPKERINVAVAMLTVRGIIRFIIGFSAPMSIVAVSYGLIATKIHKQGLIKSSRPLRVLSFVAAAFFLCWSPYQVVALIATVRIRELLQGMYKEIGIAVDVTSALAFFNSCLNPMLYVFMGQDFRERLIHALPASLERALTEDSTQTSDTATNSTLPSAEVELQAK

CHO-K1 = test: (§1) Counterscreen for antagonists of the orexin 1 receptor (OX1R; HCRTR1): Homogeneous time resolved fluorescence (HTRF)-based cell-based dose response assay to identify antagonists of the parental CHO-K1 cell line. [Related pubchem assays (depositor defined):AID434989, AID435008, AID463079, AID485270, AID492963, AID492964, AID492965, AID493232, AID504699, AID504701]; assay type: functional; settings: Cricetulus griseus
[3] = as §1, with “Fluorescence-based” for “Homogeneous time resolved fluorescence (HTRF)-based”, “cell-based high throughput” for “cell-based”, “CHO” for “CHO-K1”; assay type: functional
[4] = biological target: T3, Orexin/Hypocretin receptor type 1 (Homo sapiens, UniProt O43613); test: Homogeneous Time Resolved Fluorescence (HTRF)-based cell-based high throughput dose response assay for antagonists of the orexin 1 receptor (OX1R; HCRTR1). [Related pubchem assays (depositor defined):AID434989, AID435008, AID463079, AID485270, AID492963, AID492964, AID492965, AID493232, AID504717, AID504718]; assay type: functional
T3 sequence (O43613 whole entry): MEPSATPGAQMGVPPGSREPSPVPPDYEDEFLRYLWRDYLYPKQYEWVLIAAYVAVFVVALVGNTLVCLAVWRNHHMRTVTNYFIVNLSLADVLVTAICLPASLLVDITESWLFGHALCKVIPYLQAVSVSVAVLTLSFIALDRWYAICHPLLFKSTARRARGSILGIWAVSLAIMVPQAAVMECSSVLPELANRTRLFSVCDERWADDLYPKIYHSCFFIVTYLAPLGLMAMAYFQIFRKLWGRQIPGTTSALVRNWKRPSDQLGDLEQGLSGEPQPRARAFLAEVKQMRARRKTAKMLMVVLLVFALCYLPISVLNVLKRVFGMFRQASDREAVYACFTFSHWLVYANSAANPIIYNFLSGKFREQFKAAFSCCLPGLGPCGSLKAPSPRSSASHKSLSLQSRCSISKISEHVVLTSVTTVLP

[5] = biological target: T3, Orexin/Hypocretin receptor type 1; test: Fluorescence-based cell-based high throughput dose response assay for antagonists of the orexin 1 receptor (OX1R; HCRTR1). [Related pubchem assays (depositor defined):AID434989, AID435008, AID463079, AID485270, AID492963, AID492964, AID492965, AID493232, AID504717, AID504718]; assay type: functional
Orexin receptor type 2 [6] = biological target: T4, Orexin receptor type 2 (Homo sapiens, UniProt O43614); test: Counterscreen assay for antagonists of the orexin 1 receptor (OX1R; HCRTR1): Fluorescence-based cell-based dose response assay for antagonists of the orexin 2 receptor (OX2R; HCRTR2), run by assay provider.; assay type: functional
T4 sequence (O43614 whole entry): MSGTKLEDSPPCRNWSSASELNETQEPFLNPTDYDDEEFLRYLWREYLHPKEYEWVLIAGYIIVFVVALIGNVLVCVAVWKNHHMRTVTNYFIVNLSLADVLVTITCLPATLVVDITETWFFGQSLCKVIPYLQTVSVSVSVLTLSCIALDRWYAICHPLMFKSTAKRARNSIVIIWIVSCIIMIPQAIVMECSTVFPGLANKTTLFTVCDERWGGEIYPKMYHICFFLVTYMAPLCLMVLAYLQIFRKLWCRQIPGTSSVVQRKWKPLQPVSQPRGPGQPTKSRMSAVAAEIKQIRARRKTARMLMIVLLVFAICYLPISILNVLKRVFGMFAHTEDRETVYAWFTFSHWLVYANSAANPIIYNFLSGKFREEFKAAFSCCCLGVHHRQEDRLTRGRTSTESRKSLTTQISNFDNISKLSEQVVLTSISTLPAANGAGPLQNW

Orexin receptor type 2 [7] = biological target: T4, Orexin receptor type 2; test: Counterscreen assay for antagonists of the orexin 1 receptor (OX1R; HCRTR1): Homogeneous Time Resolved Fluorescence (HTRF)-based cell-based dose response assay for antagonists of the orexin 2 receptor (OX2R; HCRTR2), run by assay provider.; assay type: functional
[8] = biological target: Heat shock protein HSP 90-alpha (Homo sapiens, UniProt P07900); assay type: functional, organism-based
[9] = biological target: Dual specificity tyrosine-phosphorylation-regulated kinase 1A (Rattus norvegicus, UniProt Q63470); assay type: biochemical, Homo sapiens
Paired box protein Pax-8 = Paired box protein Pax-8 (Homo sapiens, UniProt Q06710); test: PAX8 transcriptional activity inhibition in RMG-I – RMG-I cells, luciferase, cherry-pick, dose response (AID 687027); assay type: functional, cell-based;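 note: luciferase reporter driven by Pax8 target thyroperoxidase promoter measured by SteadyGlo luminescence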
[10] = biological target: T5, Histone-lysine N-methyltransferase NSD2 (Homo sapiens, UniProt O96028); assay type: biochemical
T5 sequence (O96028 whole entry): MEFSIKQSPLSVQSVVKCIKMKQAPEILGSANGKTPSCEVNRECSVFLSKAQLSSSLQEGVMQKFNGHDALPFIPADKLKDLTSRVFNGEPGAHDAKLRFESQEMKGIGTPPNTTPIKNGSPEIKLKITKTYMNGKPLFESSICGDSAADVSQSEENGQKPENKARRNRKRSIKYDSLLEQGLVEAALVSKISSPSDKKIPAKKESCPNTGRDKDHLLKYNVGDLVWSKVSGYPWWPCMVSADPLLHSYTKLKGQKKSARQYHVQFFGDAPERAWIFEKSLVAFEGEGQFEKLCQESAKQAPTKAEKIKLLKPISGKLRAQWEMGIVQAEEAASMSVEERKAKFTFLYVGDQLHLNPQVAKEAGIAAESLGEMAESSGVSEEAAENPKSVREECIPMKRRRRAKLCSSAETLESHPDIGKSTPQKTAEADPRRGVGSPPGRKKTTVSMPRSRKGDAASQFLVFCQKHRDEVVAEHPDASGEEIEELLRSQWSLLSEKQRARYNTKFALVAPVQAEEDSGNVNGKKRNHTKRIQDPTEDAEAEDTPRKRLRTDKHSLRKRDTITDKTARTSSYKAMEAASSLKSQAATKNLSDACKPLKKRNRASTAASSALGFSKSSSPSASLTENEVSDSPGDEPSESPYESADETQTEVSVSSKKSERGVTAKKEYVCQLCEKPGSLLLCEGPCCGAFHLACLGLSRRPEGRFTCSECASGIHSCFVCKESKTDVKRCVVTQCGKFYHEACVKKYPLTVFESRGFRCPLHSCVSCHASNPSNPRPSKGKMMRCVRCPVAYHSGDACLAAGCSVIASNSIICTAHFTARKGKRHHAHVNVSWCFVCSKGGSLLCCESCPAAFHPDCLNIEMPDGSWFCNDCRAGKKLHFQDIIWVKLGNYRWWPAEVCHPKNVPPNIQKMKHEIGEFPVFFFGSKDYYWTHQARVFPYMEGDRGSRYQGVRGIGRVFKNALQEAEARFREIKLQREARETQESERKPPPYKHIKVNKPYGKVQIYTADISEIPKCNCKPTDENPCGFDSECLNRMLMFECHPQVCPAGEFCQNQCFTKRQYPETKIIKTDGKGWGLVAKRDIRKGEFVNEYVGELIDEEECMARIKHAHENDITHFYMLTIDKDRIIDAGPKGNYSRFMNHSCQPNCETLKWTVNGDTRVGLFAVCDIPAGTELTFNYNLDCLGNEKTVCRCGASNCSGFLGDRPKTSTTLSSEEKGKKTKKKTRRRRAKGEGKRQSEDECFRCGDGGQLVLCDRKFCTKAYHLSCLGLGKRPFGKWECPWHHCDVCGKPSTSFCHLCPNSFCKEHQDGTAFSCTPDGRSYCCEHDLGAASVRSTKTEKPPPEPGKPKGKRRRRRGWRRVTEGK

[11] = biological target: T6, Tyrosyl-DNA phosphodiesterase 2 (Homo sapiens, UniProt O95551); test: potency against TDP2 phosphodiesterase activity – biochemical, epi absorbance, IC50, dose response (AID 743297)
T6 sequence (O95551 whole entry): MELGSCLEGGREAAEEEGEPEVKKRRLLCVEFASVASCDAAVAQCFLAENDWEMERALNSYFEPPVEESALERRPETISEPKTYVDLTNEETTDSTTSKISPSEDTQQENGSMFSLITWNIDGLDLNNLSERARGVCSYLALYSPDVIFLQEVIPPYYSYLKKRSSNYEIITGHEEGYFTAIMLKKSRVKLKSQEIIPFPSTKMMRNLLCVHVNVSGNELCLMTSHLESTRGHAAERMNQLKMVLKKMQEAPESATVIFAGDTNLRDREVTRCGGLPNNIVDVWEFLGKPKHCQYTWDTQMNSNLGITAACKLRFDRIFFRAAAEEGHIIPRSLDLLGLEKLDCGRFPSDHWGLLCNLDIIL

T1 sequence (P49327 whole entry): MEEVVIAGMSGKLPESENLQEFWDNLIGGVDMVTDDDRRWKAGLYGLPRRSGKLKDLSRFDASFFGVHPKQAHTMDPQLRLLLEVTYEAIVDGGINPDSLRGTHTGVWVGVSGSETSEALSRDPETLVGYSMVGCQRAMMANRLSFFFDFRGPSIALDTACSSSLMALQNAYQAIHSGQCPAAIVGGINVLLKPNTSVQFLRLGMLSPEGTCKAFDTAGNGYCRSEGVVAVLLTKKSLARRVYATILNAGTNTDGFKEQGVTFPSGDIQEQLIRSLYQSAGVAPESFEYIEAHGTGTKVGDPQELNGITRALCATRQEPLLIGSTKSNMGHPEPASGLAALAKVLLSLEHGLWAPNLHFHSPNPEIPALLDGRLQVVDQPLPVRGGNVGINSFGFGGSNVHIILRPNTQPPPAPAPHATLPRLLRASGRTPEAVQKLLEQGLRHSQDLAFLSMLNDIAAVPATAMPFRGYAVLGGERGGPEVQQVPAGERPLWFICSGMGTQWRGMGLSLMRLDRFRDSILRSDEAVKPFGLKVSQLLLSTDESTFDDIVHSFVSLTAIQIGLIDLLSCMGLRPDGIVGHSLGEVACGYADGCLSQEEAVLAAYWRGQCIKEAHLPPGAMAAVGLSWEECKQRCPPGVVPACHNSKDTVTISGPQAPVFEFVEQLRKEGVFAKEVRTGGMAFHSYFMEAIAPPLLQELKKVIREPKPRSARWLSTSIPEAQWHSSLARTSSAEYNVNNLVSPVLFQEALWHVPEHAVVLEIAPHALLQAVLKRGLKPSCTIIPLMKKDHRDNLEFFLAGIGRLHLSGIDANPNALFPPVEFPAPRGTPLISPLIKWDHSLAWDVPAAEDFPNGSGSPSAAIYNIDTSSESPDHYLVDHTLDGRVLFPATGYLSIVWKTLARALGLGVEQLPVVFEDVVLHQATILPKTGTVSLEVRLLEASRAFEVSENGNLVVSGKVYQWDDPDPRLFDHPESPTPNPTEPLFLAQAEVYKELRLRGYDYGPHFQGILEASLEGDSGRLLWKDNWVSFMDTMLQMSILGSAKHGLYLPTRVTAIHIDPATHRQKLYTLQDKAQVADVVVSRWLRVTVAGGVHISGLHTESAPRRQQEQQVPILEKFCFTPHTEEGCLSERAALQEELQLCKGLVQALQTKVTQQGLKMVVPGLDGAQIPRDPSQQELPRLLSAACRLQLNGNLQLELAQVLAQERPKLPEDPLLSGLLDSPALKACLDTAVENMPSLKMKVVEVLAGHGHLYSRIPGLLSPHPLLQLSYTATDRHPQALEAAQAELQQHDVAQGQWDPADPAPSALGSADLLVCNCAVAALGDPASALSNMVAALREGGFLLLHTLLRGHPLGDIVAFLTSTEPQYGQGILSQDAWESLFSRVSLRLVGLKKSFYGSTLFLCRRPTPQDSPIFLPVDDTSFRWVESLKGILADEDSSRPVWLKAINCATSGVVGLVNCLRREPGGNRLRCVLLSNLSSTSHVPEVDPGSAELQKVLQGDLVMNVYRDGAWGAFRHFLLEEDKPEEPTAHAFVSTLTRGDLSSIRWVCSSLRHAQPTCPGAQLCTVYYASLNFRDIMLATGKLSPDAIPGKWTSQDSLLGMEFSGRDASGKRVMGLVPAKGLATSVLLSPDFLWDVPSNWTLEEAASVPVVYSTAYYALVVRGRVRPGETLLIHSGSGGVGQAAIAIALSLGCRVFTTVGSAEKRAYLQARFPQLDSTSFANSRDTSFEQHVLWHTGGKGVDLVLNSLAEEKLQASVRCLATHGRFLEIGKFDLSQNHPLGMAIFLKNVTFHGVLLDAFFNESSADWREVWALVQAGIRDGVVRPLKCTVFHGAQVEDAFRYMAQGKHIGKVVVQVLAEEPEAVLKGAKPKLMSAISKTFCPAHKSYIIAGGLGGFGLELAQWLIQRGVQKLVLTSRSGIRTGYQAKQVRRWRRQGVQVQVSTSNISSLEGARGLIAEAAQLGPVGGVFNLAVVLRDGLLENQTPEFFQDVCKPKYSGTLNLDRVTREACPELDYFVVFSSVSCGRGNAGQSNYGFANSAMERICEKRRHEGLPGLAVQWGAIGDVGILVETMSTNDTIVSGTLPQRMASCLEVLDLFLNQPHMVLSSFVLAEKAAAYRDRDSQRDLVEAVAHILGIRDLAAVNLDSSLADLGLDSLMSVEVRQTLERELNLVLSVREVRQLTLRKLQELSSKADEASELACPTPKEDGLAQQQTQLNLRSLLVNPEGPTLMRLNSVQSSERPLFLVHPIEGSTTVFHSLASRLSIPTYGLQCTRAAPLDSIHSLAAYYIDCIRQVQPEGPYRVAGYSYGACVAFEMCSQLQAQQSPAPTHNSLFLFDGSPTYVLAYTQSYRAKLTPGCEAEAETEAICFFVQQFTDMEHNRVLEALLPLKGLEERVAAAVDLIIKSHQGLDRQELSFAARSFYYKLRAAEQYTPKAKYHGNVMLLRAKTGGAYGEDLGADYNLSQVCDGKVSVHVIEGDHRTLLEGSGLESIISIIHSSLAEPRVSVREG
Chain of Paired box protein Pax-8 (Q06710 whole entry): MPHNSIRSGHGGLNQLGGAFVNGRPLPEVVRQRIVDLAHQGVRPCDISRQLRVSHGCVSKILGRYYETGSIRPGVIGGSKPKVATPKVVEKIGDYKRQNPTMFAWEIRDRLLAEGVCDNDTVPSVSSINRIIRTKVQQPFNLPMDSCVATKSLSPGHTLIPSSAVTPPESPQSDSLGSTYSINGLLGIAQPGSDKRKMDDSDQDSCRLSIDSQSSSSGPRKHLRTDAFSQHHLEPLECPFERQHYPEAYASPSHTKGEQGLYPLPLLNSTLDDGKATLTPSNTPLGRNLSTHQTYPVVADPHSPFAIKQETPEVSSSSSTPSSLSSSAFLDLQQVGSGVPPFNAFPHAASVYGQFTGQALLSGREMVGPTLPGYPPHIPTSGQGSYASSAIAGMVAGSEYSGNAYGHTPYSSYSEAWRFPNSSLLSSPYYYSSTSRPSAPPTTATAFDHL
Chain of Kallikrein-7 (P49862 whole entry): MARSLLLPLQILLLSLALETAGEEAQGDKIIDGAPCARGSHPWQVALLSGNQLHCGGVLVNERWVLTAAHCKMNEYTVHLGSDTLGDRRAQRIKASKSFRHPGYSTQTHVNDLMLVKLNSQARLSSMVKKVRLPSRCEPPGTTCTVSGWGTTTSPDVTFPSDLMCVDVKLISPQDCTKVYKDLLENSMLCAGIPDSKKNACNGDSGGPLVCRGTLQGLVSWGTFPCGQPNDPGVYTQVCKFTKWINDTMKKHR

SMILES	Ki (fMet-Leu-Phe receptor)	IC50 (CHO-K1)	IC50 [3]	IC50 [4]	IC50 [5]	IC50 (Orexin receptor type 2 [6])	IC50 (Orexin receptor type 2 [7])	also measured
CCOC(=O)c1cc2c(=O)n3ccccc3nc2n(CC2CCCO2)/c1=N/C(=O)/C=C/c1ccccc1 (stereo unspecified)	–	–	–	–	–	–	–	IC50 (Fatty acid synthase [1]): 2.71 µM (active); IC50 (Fatty acid synthase [2]): 3.99 µM (active); EC50 (Kallikrein-7): > 69.5 µM (inactive)
CCOC(=O)CSc1nnc(CNC(=O)c2cc(OCC)c(OCC)c(OCC)c2)n1C	> 66.7 µM (inactive)	–	–	–	–	–	–	–
CN(Cc1ccccc1)C(=O)c1[nH]cnc1C(=O)N[C@@H](Cc1ccccc1)C(=O)OC(C)(C)C	–	> 66.2 µM (inactive)	> 49.8 µM (inactive)	0.515 µM (active)	5.87 µM (active)	> 88.8 µM (inactive)	> 50 µM (inactive)	–
Cc1cc(O)cc2c(=O)c3ccccc3sc12	–	> 66.3 µM (inactive)	> 49.8 µM (inactive)	3.64 µM (active)	8.54 µM (active)	> 88.8 µM (inactive)	0.009 µM (active)	–
Cc1csc(-c2coc3cc(O)cc(C)c3c2=O)n1	–	> 66.2 µM (inactive)	> 49.8 µM (inactive)	2.54 µM (active)	10.4 µM (inactive)	> 88.8 µM (inactive)	> 50 µM (inactive)	–
Cc1ccc2c(c1C)-c1c(ccc(C)c1C)C(=O)C2=O	–	–	–	–	–	–	–	AC50 [8]: 2.79 µM (active); AC50 [9]: 3.16 µM (active); IC50 (Fatty acid synthase [1]): 7.89 µM (active); IC50 (Fatty acid synthase [2]): 5.23 µM (active); AC50 (Paired box protein Pax-8): 3.67 µM (active); AC50 [10]: 0.531 µM (active); IC50 [11]: 8.67 µM (active)

Second part, led by results:

Ki (fMet-Leu-Phe receptor)	SMILES	IC50 (CHO-K1)	IC50 [3]	IC50 [4]	IC50 [5]	IC50 (Orexin receptor type 2 [6])	IC50 (Orexin receptor type 2 [7])	also measured
> 66.7 µM (inactive)	CC1Cc2cc(C(=O)C3=C(O)C(=O)N(CCN4CCOCC4)C3c3ccccc3F)ccc2O1 (stereo unspecified)	–	–	–	–	–	–	–
> 66.7 µM (inactive)	Cc1ccc(C(=O)C2=C(O)C(=O)N(c3cc(C)on3)C2c2cccc(Br)c2)cc1 (stereo unspecified)	–	–	–	–	–	–	–
